Data: PubChem BioAssay AID1259407 (Chemical Carcinogenesis Research Information System (CCRIS), 2018)
Calls of active or inactive are those of the source. The rule behind the calls is not given here.

Tested on: CCRIS mutagenicity, Ames/micronucleus/aberration tests
Test: CCRIS mutagenicity studies
[1] = Test System: AMES SALMONELLA TYPHIMURIUM, Strain/Indicator: TA1535, Metabolic Activation: NONE, Method: STANDARD PLATE

Compound	mutagenic call [1]	mutagenic call (Test System: AMES SALMONELLA TYPHIMURIUM, Strain/Indicator: TA1535, Metabolic Activation: NONE, Method: STANDARD PLATE (MEDIUM WITH TRIMETAPHOSPHATE IONS))	mutagenic call (Test System: UDS HUMAN FIBROBLASTS, Strain/Indicator: THY INCORP (NON-S-PHASE), Metabolic Activation: MOUSE, LIVER, S-9, Method: AUTORADIOGRAPHY)	mutagenic call (Test System: UDS HUMAN FIBROBLASTS, Strain/Indicator: THY INCORP (NON-S-PHASE), Metabolic Activation: NONE, Method: AUTORADIOGRAPHY)	mutagenic call (Test System: AMES SALMONELLA TYPHIMURIUM, Strain/Indicator: TA98, Metabolic Activation: NONE, Method: PREINCUBATION)	mutagenic call (Test System: AMES SALMONELLA TYPHIMURIUM, Strain/Indicator: TA98, Metabolic Activation: RAT, LIVER, CYTOSOL, Method: PREINCUBATION)	mutagenic call (Test System: AMES SALMONELLA TYPHIMURIUM, Strain/Indicator: TA98, Metabolic Activation: RAT, LIVER, MICROSOMES, Method: PREINCUBATION)	mutagenic call (Test System: AMES SALMONELLA TYPHIMURIUM, Strain/Indicator: TA97, Metabolic Activation: NONE, Method: STANDARD PLATE)	mutagenic call (Test System: AMES SALMONELLA TYPHIMURIUM, Strain/Indicator: TA97, Metabolic Activation: RAT, LIVER, S-9, AROCLOR 1254, Method: STANDARD PLATE)	mutagenic call (Test System: AMES SALMONELLA TYPHIMURIUM, Strain/Indicator: TA98, Metabolic Activation: NONE, Method: STANDARD PLATE)	mutagenic call (Test System: AMES SALMONELLA TYPHIMURIUM, Strain/Indicator: TA98, Metabolic Activation: RAT, LIVER, S-9, AROCLOR 1254, Method: STANDARD PLATE)	mutagenic call (Test System: AMES SALMONELLA TYPHIMURIUM, Strain/Indicator: TA100, Metabolic Activation: NONE, Method: STANDARD PLATE)	mutagenic call (Test System: AMES SALMONELLA TYPHIMURIUM, Strain/Indicator: TA100, Metabolic Activation: RAT, LIVER, S-9, AROCLOR 1254, Method: STANDARD PLATE)	mutagenic call (Test System: AMES SALMONELLA TYPHIMURIUM, Strain/Indicator: TA1535, Metabolic Activation: RAT, LIVER, S-9, AROCLOR 1254, Method: STANDARD PLATE)	mutagenic call (Test System: AMES SALMONELLA TYPHIMURIUM, Strain/Indicator: TA1537, Metabolic Activation: NONE, Method: STANDARD PLATE)	mutagenic call (Test System: AMES SALMONELLA TYPHIMURIUM, Strain/Indicator: TA1537, Metabolic Activation: RAT, LIVER, S-9, AROCLOR 1254, Method: STANDARD PLATE)	mutagenic call (Test System: AMES SALMONELLA TYPHIMURIUM, Strain/Indicator: TA1538, Metabolic Activation: NONE, Method: STANDARD PLATE)	mutagenic call (Test System: AMES SALMONELLA TYPHIMURIUM, Strain/Indicator: TA1538, Metabolic Activation: RAT, LIVER, S-9, AROCLOR 1254, Method: STANDARD PLATE)	mutagenic call (Test System: UDS RAT HEPATOCYTES, Strain/Indicator: THY INCORP, Metabolic Activation: NONE, Method: LIQUID SCINTILLATION COUNTING)
O=[Se](=O)(O)O	active; positive	active; positive	active; positive	active; positive	–	–	–	–	–	–	–	–	–	–	–	–	–	–	–
CC(=O)N(O)c1ccc2ccccc2c1	–	–	–	–	inactive; negative	inactive; negative	active; positive	–	–	–	–	–	–	–	–	–	–	–	–
C/C=C\c1cc(OC)c(OC)cc1OC	active; positive	–	–	–	–	–	–	inactive; negative	inactive; negative	inactive; negative	inactive; negative	inactive; negative	inactive; negative	inactive; negative	inactive; negative	inactive; negative	inactive; negative	inactive; negative	active; positive
